# Data taken from US8178506B2, “Oligomeric compounds and compositions for use in modulation of small non-coding RNAs” (Regulus Therapeutics Inc., priority 2003, dated 2012).
# Entries after “also recorded” stand apart in the source; their conditions may differ. In the oligonucleotide strings, read from the 5' end, every base follows the letter of its sugar. An asterisk marks phosphorothioate; unmarked linkages are phosphodiester. Other units and linkages are bracketed, terminal groups are in braces. A string of capitals states the bases alone. e = 2'-O-(2-methoxyethyl) (MOE); [5mC] = 5-methylcytosine; d = 2'-deoxy (DNA)
# What was measured:
# Type in all cases: cell-based, human
# T47Dp53 cells = test: Cell cycle assay in T47Dp53 cells; conditions: 150 nM, 48 hours, relative to untreated control
# Experimental: (§1) In further studies, additional cell lines were treated with oligomeric compounds targeted against miRNAs to assess the effects of each oligomeric compound on cell cycling. BJ, B16, T47D, and HeLa cells were cultured and transfected as described above. […] T47Dp53 cells are T47D cells that have been transfected with and selected for maintenance of a plasmid that expresses a wildtype copy of the p53 gene (for example, pCMV-p53; Clontech, Palo Alto, Calif.), using standard laboratory procedures. BJ cells were treated with 200 nM of each oligomeric compound, and T47D, T47Dp53, HeLa, and B16 cells were treated with 150 nM of each oligomeric compound. The human foreskin fibroblast BJ cell line represents a non-cancer cell line, while HeLa, T47D, T47Dp53 cells and the mouse melanoma cell line B16-F10 represent cancerous cell lines. For comparison, oligomeric compounds ISIS 183891 (SEQ ID NO: 847) and ISIS 285717 ([…]; herein incorporated as SEQ ID NO: 857), both targeting the kinesin-like 1/Eg5 mRNA, involved in cell cycling, were used as positive controls. The random-mer ISIS 29848 was used as a negative control. Additionally, the oligomeric compounds ISIS Number 25690 ([…]; herein incorporated as SEQ ID NO: 858) and ISIS Number 25691 ([…]; herein incorporated as SEQ ID NO: 859), targeted to nucleotides 3051-3070 and 3085-3104, respectively, of the mRNA encoding the Drosha RNase III (GenBank Accession NM_013235.2, incorporated herein as SEQ ID NO: 860) were also tested. ISIS Number 25690 and ISIS Number 25691 are 5-10-52′-MOE gapmer compounds, 20 nucleotides in length, with phosphorothioate internucleoside linkages throughout the oligomeric compound. All cytidine residues are 5-methylcytidines. Transfections were performed using the methods described herein. Cells were prepared for flow cytometry 48-hours after oligonucleotide treatment. Results of these studies are shown in Table 35, where data are expressed as percentage of cells in each phase relative to the untreated control cells in that phase.
# HeLa cells = test: Cell cycle assay in HeLa cells; conditions: HeLa cells, 150 nM oligomeric compound; for % cells aneuploid / % cells in cell cycle phase G1 / % cells in cell cycle phase G2/M / % cells in cell cycle phase S / % cells in cell cycle phase subG1: 24 hours, relative to untreated control (UTC = 100); for % cells in cell cycle phase: G1 / % cells in cell cycle phase: G2/M / % cells in cell cycle phase: S / % cells in cell cycle phase: aneuploid / % cells in cell cycle phase: subG1: 48 hours after treatment, relative to untreated control (UTC=100)
# A549 cells = test: Cell cycle assay in A549 cells; conditions: A549 cells, 24 hours, relative to the untreated control cells in that phase
# Experimental: In accordance with the present invention, certain oligomeric compounds targeting miRNAs were selected for dose response studies. Using the cell cycle assay described above, the cell cycle profiles of HeLa or A549 cells treated with varying concentrations of oligomeric compounds of the present invention were assessed.
# Concomittent decreases in the percentage of cells in G1-phase of the cell cycle and increases in the percentage of hypodiploid (subG1) cells were also observed.
# In a further study, A549 cells were treated with 25-, 50-, 100- or 150 nM of the oligomeric compounds ISIS Numbers 338637 (SEQ ID NO: 464) targeted against mir-96, and ISIS 338769 (SEQ ID NO: 596) targeted against mir-130b, ISIS 338836 (SEQ ID NO: 663) targeted against mir-23a, and ISIS 340350 (SEQ ID NO: 855) targeted against mir-95 (Mourelatos). Cells treated with increasing concentrations of oligomeric compounds were compared to untreated cells, to assess the dose-responsiveness of the observed delay or arrest. The random-mer ISIS 29848 was used as a negative control. Cells were prepared for flow cytometry 24-hours after oligonucleotide treatment. Results of these dose response studies are shown in Table 34, where data are expressed as percentage of cells in each phase relative to the untreated control cells in that phase.
# T47D cells = test: Cell cycle assay in T47D cells; conditions: 150 nM, 48 hours, relative to untreated control
# Experimental: BJ cells were routinely cultured in MEM high glucose with 2 mM L-glutamine and Earle's BSS adjusted to contain 1.5 g/L sodium bicarbonate and supplemented with 10% fetal bovine serum, 0.1 mM non-essential amino acids and 1.0 mM sodium pyruvate (all media and supplements from Invitrogen Life Technologies, Carlsbad, Calif.). B16-F10 cells were routinely cultured in DMEM high glucose (Invitrogen Life Technologies, Carlsbad, Calif.) supplemented with 10% fetal bovine serum (Invitrogen Life Technologies, Carlsbad, Calif.). T47D cells were cultured in DMEM High glucose media (Invitrogen Life Technologies, Carlsbad, Calif.) supplemented with 10% fetal bovine serum. […] Cells were plated on collagen-coated 24-well plates (Falcon-Primaria #3047, BD Biosciences, Bedford, Mass.) at approximately 50,000 cells per well and allowed to attach to wells overnight.
# as §1
# mir-21 pri-miRNA = mir-21 pri-miRNA expression in HeLa cells (real-time RT-PCR); conditions: for mir-21 pri-miRNA expression % UTC: HeLa cells, real-time RT-PCR
# Experimental: In one embodiment, the expression of mir-21 (noted to be expressed at high levels in HeLa cells) was assessed in cells treated with oligomeric compounds. Using the transfection methods previously described, HeLa cells were treated with 100 nM of the uniform 2′-MOE oligomeric compound ISIS Number 327917 (SEQ ID NO: 335) targeting the mir-21 mature miRNA. Total RNA was isolated by lysing cells in 1 mL TRIZOL™ (Invitrogen) using the manufacturer's recommended protocols. […] Real-time RT-PCR analysis was also performed on HeLa cells treated with ISIS 327917 using a primer/probe set specific for the mir-21 pri-miRNA molecule [forward primer=ISIS 339332 ([…]; herein incorporated as SEQ ID NO.: 911), reverse primer-ISIS 339333 (TCGACTGGTGTTGCCATGA; herein incorporated as SEQ ID NO.: 912), and probe=ISIS 339334 ([…]; herein incorporated as SEQ ID NO.: 913)]. Total RNA was quantified using RiboGreen™ RNA quantification reagent (Molecular Probes, Inc. Eugene, Oreg.), expression levels observed for the target were normalized to 5.8S rRNA, and values were expressed relative to an untreated control (UTC).
# Using the real-time RT-PCR methods, the expression levels of the mir-21 pri-miRNA were compared in HeLa cells treated with this nested series of uniform 2′-MOE oligomeric compounds, targeting and spanning the entire length of the mir-21 pri-miRNA. ISIS Number 358768 (SEQ ID NO: 918) targets a region flanking the predicted 5′ Drosha cleavage site in the mir-21 pri-miRNA. ISIS Number 358777 (SEQ ID NO: 927) targets a region spanning the 3′ Drosha cleavage site in the mir-21 pri-miRNA. ISIS 358779 (SEQ ID NO: 929) targets a region flanking the predicted 3′ Drosha cleavage site in the mir-21 pri-miRNA. Additionally, oligomeric compounds ISIS 327917 (SEQ ID NO: 335), a uniform 2′-MOE compound targeting the mature mir-21 miRNA, and ISIS 345382 ([…]; SEQ ID NO: 335), a 5-10-7 phosphorothioate 2′-MOE gapmer targeting mir-21, were tested for comparison. Oligomeric compound ISIS 327863 ([…]; herein incorporated as SEQ ID NO: 936), a phosphorothioate 5-10-52′-MOE gapmer, was used as scrambled control. […] Total RNA was isolated by lysing cells in 1 mL TRIZOL™ (Invitrogen) using the manufacturer's recommended protocols. real-time RT-PCR analysis was performed using the primer/probe set specific for the mir-21 pri-miRNA molecule [forward primer=ISIS 339332 (SEQ ID NO.: 911), reverse primer-ISIS 339333 (SEQ ID NO.: 912), and probe=ISIS 339334 (SEQ ID NO.: 913)]. Total RNA was quantified using RiboGreen™ RNA quantification reagent (Molecular Probes, Inc. Eugene, Oreg.), expression levels observed for each target were normalized to 5.8S rRNA, and values were expressed relative to the untreated control (UTC). Effects on expression of the mir-21 pri-miRNA molecule resulting from treatment of HeLa cells with these uniform 2′-MOE oligomeric compounds is expressed as a percentage of RNA levels in untreated control cells.
substance,measurement,setting,value
"338769 (antisense GCTTCCCAGCGGCCTATAGT; all 2'-MOE, all phosphorothioate, methylation of C not given here) [compound 338769]",% cells in cell cycle phase G1,T47Dp53 cells,103%
same,% cells in cell cycle phase G2/M,T47Dp53 cells,123%
same,% cells in cell cycle phase S,T47Dp53 cells,87%
same,% cells in cell cycle phase aneuploid,T47Dp53 cells,87%
same,% cells in cell cycle phase subG1,T47Dp53 cells,116%
same,% cells aneuploid,HeLa cells,133%
same,% cells in cell cycle phase G1,HeLa cells,171%
same,% cells in cell cycle phase G2/M,HeLa cells,103%
same,% cells in cell cycle phase S,HeLa cells,61%
same,% cells in cell cycle phase subG1,HeLa cells,188%
same,% cells in cell cycle phase: G1,HeLa cells,76%
same,% cells in cell cycle phase: G2/M,HeLa cells,149%
same,% cells in cell cycle phase: S,HeLa cells,116%
same,% cells in cell cycle phase: aneuploid,HeLa cells,194%
same,% cells in cell cycle phase: subG1,HeLa cells,482%
same,% cells in cell cycle phase: G1,A549 cells; 25 nM,101%
same,% cells in cell cycle phase: G2/M,A549 cells; 25 nM,114%
same,% cells in cell cycle phase: S,A549 cells; 25 nM,94%
same,% cells in cell cycle phase: aneuploid,A549 cells; 25 nM,101%
same,% cells in cell cycle phase: subG1,A549 cells; 25 nM,62%
same,% cells in cell cycle phase: G1,A549 cells; 50 nM,114%
same,% cells in cell cycle phase: G2/M,A549 cells; 50 nM,122%
same,% cells in cell cycle phase: S,A549 cells; 50 nM,81%
same,% cells in cell cycle phase: aneuploid,A549 cells; 50 nM,132%
same,% cells in cell cycle phase: subG1,A549 cells; 50 nM,82%
same,% cells in cell cycle phase: G1,A549 cells; 100 nM,124%
same,% cells in cell cycle phase: G2/M,A549 cells; 100 nM,113%
same,% cells in cell cycle phase: S,A549 cells; 100 nM,75%
same,% cells in cell cycle phase: aneuploid,A549 cells; 100 nM,157%
same,% cells in cell cycle phase: subG1,A549 cells; 100 nM,130%
same,% cells in cell cycle phase: G1,A549 cells; 150 nM,117%
same,% cells in cell cycle phase: G2/M,A549 cells; 150 nM,145%
same,% cells in cell cycle phase: S,A549 cells; 150 nM,71%
same,% cells in cell cycle phase: aneuploid,A549 cells; 150 nM,184%
same,% cells in cell cycle phase: subG1,A549 cells; 150 nM,341%
328687 (eG*e[5mC]*eT*eT*e[5mC]*d[5mC]*d[5mC]*dA*dG*d[5mC]*dG*dG*d[5mC]*d[5mC]*dT*eA*eT*eA*eG*eT; antisense) [compound 328687],% cells in cell cycle phase G1,T47D cells,101%
same,% cells in cell cycle phase G2/M,T47D cells,115%
same,% cells in cell cycle phase S,T47D cells,92%
same,% cells in cell cycle phase aneuploid,T47D cells,169%
same,% cells in cell cycle phase subG1,T47D cells,142%
same,% cells aneuploid,HeLa cells,149%
same,% cells in cell cycle phase G1,HeLa cells,80%
same,% cells in cell cycle phase G2/M,HeLa cells,131%
same,% cells in cell cycle phase S,HeLa cells,98%
same,% cells in cell cycle phase subG1,HeLa cells,231%
same,% cells in cell cycle phase: G1,HeLa cells,55%
same,% cells in cell cycle phase: G2/M,HeLa cells,131%
same,% cells in cell cycle phase: S,HeLa cells,174%
same,% cells in cell cycle phase: aneuploid,HeLa cells,171%
same,% cells in cell cycle phase: subG1,HeLa cells,1119%
"327863 (antisense ACGCTAGCCTAATAGCGAGG; sugars from the 5' end e5 d10 e5, all phosphorothioate, methylation of C not given here) [compound 327863]",mir-21 pri-miRNA expression % UTC,mir-21 pri-miRNA; 100 nM,107 % UTC
358782 (antisense eA*eA*e[5mC]*eA*eA*eT*eG*eA*eT*eG*e[5mC]*eT*eG*eG*eG*eT*eA*eA*eT*eG) [compound 358782],mir-21 pri-miRNA expression % UTC,mir-21 pri-miRNA; 100 nM,155 % UTC
ISIS 358779: uniform 2′-MOE PS; SEQ ID NO: 929; region flanking 3′ Drosha cleavage site of mir-21 pri-miRNA (antisense eG*eG*eT*e[5mC]*eA*eG*eA*eT*eG*eA*eA*eA*eG*eA*eT*eA*e[5mC]*e[5mC]*eA*eA) [uniform 2′-MOE PS; region flanking 3′ Drosha cleavage site of mir-21 pri-miRNA],levels of the mir-21 pri-miRNA molecule,"mir-21 pri-miRNA; HeLa, 100 nM",stimulate an increase in levels of the mir-21 pri-miRNA molecule; also recorded: stimulate the greatest increases in expression of the mir-21 pri-miRNA
same,"mir-21 pri-miRNA levels, dose response","mir-21 pri-miRNA; HeLa, 25, 50, 100 and 200 nM",dose-responsive induction of mir-21 pri-miRNA levels
358772 (eG*eA*eG*eA*eT*eT*e[5mC]*eA*eA*e[5mC]*eA*eG*eT*e[5mC]*eA*eA*e[5mC]*eA*eT*e[5mC]; antisense) [compound 358772],mir-21 pri-miRNA expression % UTC,mir-21 pri-miRNA; 100 nM,245 % UTC
358784 (antisense e[5mC]*eG*eA*e[5mC]*eA*eA*eG*eG*eT*eG*eG*eT*eA*e[5mC]*eA*eG*e[5mC]*e[5mC]*eA*eT) [compound 358784],mir-21 pri-miRNA expression % UTC,mir-21 pri-miRNA; 100 nM,358 % UTC
